The text below walks through data of patent publication US11166947B2, “Effective dosing of a child for the treatment of ADHD with methylphenidate” (Neos Therapeutics, LP, priority 2016, dated 2021).

Converted amounts (≈) assume the structure as drawn.

This assay relates to pediatric patients with ADHD. Kind of assay: Integrated PKPD model fit to SKAMP total score measurements from the Day 7 classroom evaluation. Type of assay: in vivo, human. The settings on record: base (final) PKPD model estimate, 81 pediatric patients. The source says:
This example describes the development of a pharmacokinetic-pharmacodynamic model for the therapeutic effect of a particular methylphenidate formulation and its testing on a population of pediatric patients with ADHD. The drug formulation tested in this example is designated MPH XR-ODT and described in U.S. Publication No. 2014/0030348, which is incorporated herein by reference.
The structural PK model for a plasma concentration following administration of the stimulant was described by two parallel inputs into a central compartment and linear elimination from the central compartment.
Body weight appears as a covariate of CL and V which was included in the model in the following way: CLi=tvCL*Weight^0.655 Equation 1 Vi=tvV*Weight^0.670 Equation 2 where CL, and V, are the clearance and volume of distribution parameters for individual “i”, tvCL and tvV are the typical population clearance and volume of distribution parameters, and weight is body weight in kg. Model parameters were determined using nonlinear mixed-effects modeling with first-order conditional maximum likelihood estimation using Phoenix NLME (Version 6.3).
This phenomenon was readily obvious in the patients that were assigned to the placebo treatment arm. Therefore, the PD model required a drug effect component and a placebo effect component. […]

`COC(=O)C(c1ccccc1)C1CCCCN1` (centres unmarked) [methylphenidate]: the “Emax, maximum reduction in SKAMP total score with administration of methylphenidate” value was 38.1. Further, the EC50 (Homo sapiens, simulated plasma concentrations, read-out: EC50, concentration of methylphenidate required to achieve 50% of the maximal reduction in SKAMP total score) was 0.0142 µg/mL (≈ 0.061 µM).
